Laboratory results as given in patent publication US3952012A, “Aroyl-substituted pyrroles” (McNeil Laboratories, Incorporated, priority 1974, dated 1976).

Tested on: kaolin-induced rat paw edema
Assay: kaolin-induced rat paw edema assay: inhibition of paw swelling, single oral dose
Assay type: in vivo, rat (male Holtzman)
Conditions: 3.0 mg/kg
Protocol: In the kaolin-induced rat paw edema assay, the ability of a compound, when administered in a single oral dose, to inhibit the swelling of the rat paw injected with a standard amount (0.1 ml.) of 10% kaolin suspension in saline is measured. For comparative purposes, the activity of the compound to be tested is measured against that produced by the known anti-inflammatory agent, phenylbutazone. Male Holtzman rats are used in the assay.

Row | Compound | inhibition
1 | CCc1cc(CC(=O)O)n(C)c1C(=O)c1ccc(Cl)cc1 [5-(p-Chlorobenzoyl)-4-ethyl-1-methylpyrrole-2-acetic acid] | 29%
2 | Cc1cc(C(C)C(=O)O)n(C)c1C(=O)c1ccc(Cl)cc1 (stereo not drawn) [5-(p-Chlorobenzoyl)-1,4,α-trimethylpyrrole-2-acetic acid] | 37%

Same assay, conditions: 9.0 mg/kg

Row | Compound | inhibition
3 | CCc1cc(CC(=O)O)n(C)c1C(=O)c1ccc(Cl)cc1 [5-(p-Chlorobenzoyl)-4-ethyl-1-methylpyrrole-2-acetic acid] | 47%
4 | Cc1cc(C(C)C(=O)O)n(C)c1C(=O)c1ccc(Cl)cc1 (stereo not drawn) [5-(p-Chlorobenzoyl)-1,4,α-trimethylpyrrole-2-acetic acid] | 53%

Same assay, conditions: 80 mg/kg, comparator

Row | Compound | inhibition
5 | CCCCC1C(=O)N(c2ccccc2)N(c2ccccc2)C1=O [phenylbutazone, reference compound] | 30-40%

Same assay, conditions: 100 mg/kg, comparator

Row | Compound | inhibition
6 | CCCCC1C(=O)N(c2ccccc2)N(c2ccccc2)C1=O [phenylbutazone, reference compound] | 50-60%

Same assay, conditions: Rattus norvegicus, po, Table I; 12.5 mg/kg p.o.; read-out: % INHIBITION (Average 10 rats)

Row | Compound | inhibition in vivo at 12.5 mg/kg
7 | Cc1ccccc1C(=O)c1ccc(CC(=O)O)n1C [5-(o-methylbenzoyl)-do, 1-Methyl-5-(o-toluoyl)-pyrrole-2-acetic acid] | 34%

Same assay, conditions: Rattus norvegicus, po, Table I; 25 mg/kg p.o.; read-out: % INHIBITION (Average 10 rats)

Row | Compound | inhibition in vivo at 25 mg/kg
8 | Cc1ccc(C(=O)c2ccc(CC(=O)O)n2C)cc1 [5-(p-methylbenzoyl)-do, 5-(p-Toluoyl)-1-methylpyrrole-2-acetic acid] | 44%
9 | CCN(CC)CCNC(=O)Cc1ccc(C(=O)c2ccc(Cl)cc2)n1C [5-(p-Chlorobenzoyl)-N-(2-diethylaminoethyl)-1-methylpyrrole-2-acetamide] | 27%
10 | Cn1c(CC(=O)O)ccc1C(=O)c1cccs1 [5-(2-thenoyl)-do, 1-Methyl-5-(2-thenoyl)-pyrrole-2-acetic acid] | 63%
11 | Cn1c(CC(=O)O)ccc1C(=O)c1ccc(Br)cc1 [5-(p-bromobenzoyl)-do, 5-(p-bromobenzoyl)-1-methylpyrrole-2-acetic acid] | 42%
12 | Cc1ccc(C(=O)c2ccc(CC(=O)O)n2C)s1 [1-Methyl-5-(5-methyl-2-thenoyl)-pyrrole-2-acetic acid] | 48%
13 | Cn1c(CC(=O)O)ccc1C(=O)c1ccccc1Cl [5-(o-chlorobenzoyl)-do, 5-(o-Chlorobenzoyl)-1-methylpyrrole-2-acetic acid] | 44%
14 | COc1ccc(C(=O)c2ccc(CC(=O)O)n2C)cc1 [5-(p-methoxybenzoyl)-do, 5-(p-Anisoyl)-1-methylpyrrole-2-acetic acid] | 42%
15 | Cn1c(CC(=O)O)ccc1C(=O)c1ccc(N)cc1 [5-(p-aminobenzoyl)-do, 5-(p-Aminobenzoyl)-1-methylpyrrole-2-acetic acid] | 23%
16 | Cn1c(CC(=O)NO)ccc1C(=O)c1ccc(Cl)cc1 [5-(p-Chlorobenzoyl)-1-methylpyrrole-2-acetohydroxamic acid] | 33%
17 | Cn1c(CC(=O)O)ccc1C(=O)c1ccccc1 [Example 5-benzoyl-do, 5-Benzoyl-1-methylpyrrole-2-acetic acid] | 38%
18 | Cn1c(CC(=O)O)ccc1C(=O)c1ccc(C(F)(F)F)cc1 [5-(p-trifluoromethylbenzoyl)-do, 1-methyl-5-(p-trifluoromethylbenzoyl)-pyrrole-2-acetic acid] | 60%
19 | Cn1c(CC(=O)O)ccc1C(=O)c1ccc(Cl)cc1 [5-(p-Chlorobenzoyl)-1-methylpyrrole-2-acetic acid] | 47%
20 | CCC(C(=O)O)c1ccc(C(=O)c2ccc(Cl)cc2)n1C (stereo not drawn) [5-(p-Chlorobenzoyl)-α-ethyl-1-methylpyrrole-2-acetic acid] | 22%
21 | Cn1c(CCC(=O)O)ccc1C(=O)c1ccc(Cl)cc1 [5-(p-Chlorobenzoyl)-1-methylpyrrole-2-propionic acid] | 63%
22 | Cn1c(CC(=O)O)ccc1C(=O)c1ccc(Cl)cc1Cl [5-(2',4'-dichlorobenzoyl)-do, 5-(2',4'-Dichlorobenzoyl)-1-methylpyrrole-2-acetic acid] | 51%
23 | Cn1c(CC(=O)O)ccc1C(=O)c1ccc(F)cc1 [5-(p-fluorobenzoyl)-do, 5-(p-fluorobenzoyl)-1-methylpyrrole-2-acetic acid] | 42%
24 | O=C(O)Cc1ccc(C(=O)c2ccc(Cl)cc2)[nH]1 [5-(p-Chlorobenzoyl)-pyrrole-2-acetic acid] | 32%
25 | CCNC(=O)Cc1ccc(C(=O)c2ccc(Cl)cc2)n1C [5-(p-Chlorobenzoyl)-N-ethyl-1-methylpyrrole-2-acetamide] | 25%
26 | COC(=O)Cc1ccc(C(=O)c2ccc(Cl)cc2)n1C [Methyl 5-(p-chlorobenzoyl)-1-methylpyrrole-2-acetate] | 38%
27 | CCOC(=O)Cc1ccc(C(=O)c2ccc(Cl)cc2)n1C [Ethyl 5-(p-chlorobenzoyl)-1-methylpyrrole-2-acetate] | 37%
28 | CCN(CC)C(=O)Cc1ccc(C(=O)c2ccc(Cl)cc2)n1C [5-(p-Chlorobenzoyl)-N,N-diethyl-1-methylpyrrole-2-acetamide] | 36%
29 | Cn1c(CC(=O)O)ccc1C(=O)c1cccc(Cl)c1 [5-(m-chlorobenzoyl)-do, 5-(m-Chlorobenzoyl)-1-methylpyrrole-2-acetic acid] | 41%

Same assay, conditions: Rattus norvegicus, po, Table I; 50 mg/kg p.o.; read-out: % INHIBITION (Average 10 rats)

Row | Compound | inhibition in vivo at 50 mg/kg
30 | CC(C(=O)O)c1ccc(C(=O)c2ccc(Cl)cc2)n1C (racemic) [5-(p-chlorobenzoyl)-α-methyl-1-methylpyrrole-2-acetic acid] | 56%
31 | Cc1c(CC(=O)O)c[nH]c1C(=O)c1ccc(Cl)cc1 [5-(p-Chlorobenzoyl)-4-methylpyrrole-3-acetic acid] | 43%
32 | O=C(O)Cc1ccc(C(=O)c2ccc(Cl)cc2)n1Cc1ccccc1 [1-Benzyl-5-(p-chlorobenzoyl)-pyrrole-2-acetic acid] | 23%
33 | Cn1c(CC(N)=O)ccc1C(=O)c1ccc(Cl)cc1 [5-(p-Chlorobenzoyl)-1-methylpyrrole-2-acetamide] | 35%

Same assay, conditions: Rattus norvegicus, po, Table I; 100 mg/kg p.o.; read-out: % INHIBITION (Average 10 rats)

Row | Compound | inhibition in vivo at 100 mg/kg
34 | Cn1c(CC(=O)O)ccc1C(=O)c1ccc([N+](=O)[O-])cc1 [5-(p-nitrobenzoyl)-do, 5-(p-Nitrobenzoyl)-1-methylpyrrole-2-acetic acid] | 35%
35 | Cn1c(CC(=O)O)ccc1C(=O)c1ccc(C#N)cc1 [5-(p-cyanobenzoyl)-do, 5-(p-cyanobenzoyl)-1-methylpyrrole-2-acetic acid] | 20%
36 | Cc1cc(CC(=O)O)[nH]c1C(=O)c1ccccc1 [5-benzoyl-4-methylpyrrole-2-acetic acid, 5-Benzoyl-4-methylpyrrole-2-acetic acid] | 34%
37 | CCn1c(CC(=O)O)ccc1C(=O)c1ccc(Cl)cc1 [5-(p-Chlorobenzoyl)-1-ethylpyrrole-2-acetic acid] | 43%

Same assay, conditions: Table I; 25 mg/kg p.o.; 25 mg/kg

Row | Compound | % INHIBITION (Average 10 rats)
38 | CC(C(=O)O)c1ccc(C(=O)c2ccc(Cl)cc2)n1C (single isomer, unassigned; (+)) [(+)-5-(p-chlorobenzoyl)-α-methyl-1-methylpyrrole-2-acetic ac] [(+)-5-(p-chlorobenzoyl)-1,α-dimethylpyrrole-2-acetic acid] | 62%
39 | CC(C(=O)O)c1ccc(C(=O)c2ccc(Cl)cc2)n1C (single isomer, unassigned; (-)) [(-)-5-(p-chlorobenzoyl)-α-methyl-1-methylpyrrole-2-acetic ac] [(-)-5-(p-chlorobenzoyl)-1,α-dimethylpyrrole-2-acetic acid] | 24%

Same assay, conditions: dose of 2.5 mg/kg

Row | Compound | inhibition
40 | Cc1cc(CC(=O)O)n(C)c1C(=O)c1ccc(Cl)cc1 [5-(p-chlorobenzoyl)-1,4-dimethylpyrrole-2-acetic acid] | 51%

Same assay, conditions: single oral dose 12.5 mg/kg

Row | Compound | inhibition
41 | Cn1c(CC(=O)O)ccc1C(=O)c1ccc(Cl)cc1 [5-(p-Chlorobenzoyl)-1-methylpyrrole-2-acetic acid] | about 35%

Same assay, conditions: single oral dose 25 mg/kg

Row | Compound | inhibition
42 | Cn1c(CC(=O)O)ccc1C(=O)c1ccc(Cl)cc1 [5-(p-Chlorobenzoyl)-1-methylpyrrole-2-acetic acid] | about 47%

Same assay, conditions: single oral doses of 50-100 mg/kg

Row | Compound | inhibition
43 | Cn1c(CC(=O)O)ccc1C(=O)c1ccc(Cl)cc1 [5-(p-Chlorobenzoyl)-1-methylpyrrole-2-acetic acid] | 45-53%

Tested on: cotton pellet granuloma
Assay: cotton pellet granuloma assay: granuloma tissue formed around implanted cotton pellet
Assay type: in vivo, rat (male Holtzman)
Conditions: 25 mg/kg orally, daily for seven days; water controls 110 mg
Protocol: In the cotton pellet granuloma assay, the ability of a compound, when administered orally to male Holtzman rats daily for seven days, to inhibit the amount of granuloma tissue formed in or around a cotton pellet implanted beneath the skin in the thoracic region of the animal is measured and compared to water controls. The method is described by Charles A. Winter and coworkers in J. Pharmacol., 141, 369 (1963). Analysis of variance is used to determine the significance of the results.

Row | Compound | granuloma weight
44 | COc1ccc(C(=O)c2ccc(CC(=O)O)n2C)cc1 [5-(p-methoxybenzoyl)-do, 5-(p-Anisoyl)-1-methylpyrrole-2-acetic acid] | about 71 mg

Same assay, conditions: 100 mg/kg orally, daily for seven days; water controls 115 mg

Row | Compound | granuloma weight
45 | Cn1c(CC#N)ccc1C(=O)c1ccc(Cl)cc1 [5-(p-Chlorobenzoyl)-1-methylpyrrole-2-acetonitrile] | about 98 mg
